Reference: patent US20250154288A1, “CYTOTOXICITY TARGETING CHIMERAS FOR C-C CHEMOKINE RECEPTOR 2-EXPRESSING CELLS” (GLAXOSMITHKLINE INTELLECTUAL PROPERTY DEVELOPMENT LIMITED, priority 2022, published 2025)

System: endogenous target monocytes of human PBMC
Experiment: PBMC Ex Vivo Depletion Assay (human PBMC monocyte depletion flow cytometry)
Type: cell-based
Conditions: monocyte depletion in human PBMC with anti-cotinine antibody; 18-24 hours incubation; read-out: Ex Vivo Depletion Assay pEC50 (converted)
Method: A human PBMC (peripheral blood mononuclear cells) monocyte depletion flow cytometry assay was developed to screen compounds in a 384-well plate format. This assay incorporated endogenous natural killer cells to deplete endogenous target monocytes.
To screen compounds in the human PBMC monocyte depletion flow cytometry assay, 11-point dose-response curves were made from 1 mM stocks in neat DMSO by serially diluting an ARM compound of Formula (I) four-fold into a 384-well plate row-wise. These serially diluted compounds were then stamped into a flat bottom polypropylene 384-well plate (Greiner Bio-One) at 100 nL/well. […]
After 18-24 hours incubation, 2 μL of 6.25 μg human FC block (BD Pharmingen) that was diluted in assay medium was added to the wells of the plate. […] Samples from the plate were run on BD FACS Canto II flow cytometer and data was analyzed using FlowJo software.
ARMs compounds of Formula (I) of the invention were tested for the ability to deplete monocytes in the above assay in one or more experimental runs and the results are shown in Table 3 below. […] The pEC50 value is the negative log of the EC50 value, wherein the EC50 value is the half maximal effective concentration measured in molar (M). For compounds tested in more than one experimental run, the pEC50 value is reported as an average or as the individual values measured

For `CO[C@@H]1COCC[C@@H]1N[C@@H]1CC[C@@](C(=O)N2CCc3nc(CCCCOc4cccc(C(=O)NCCOCCOCCOCCOCCOCCOCCOCCOCCOCCNC(=O)[C@H]5CC(=O)N(C)[C@@H]5c5cccnc5)c4)c(C(F)(F)F)cc3C2)(C(C)C)C1` [Example 22, (2S,3S)—N-(1-(3-(4-(6-((1S,3R)-1-Isopropyl-3-(((3S,4S)-3-methoxytetrahydro-2H-pyran-4-yl)amino)cyclopentane-1-carbonyl)-3-(trifluoromethyl)-5,6,7,8-tetrahydro-1,6-naphthyridin-2-yl)butoxy)phenyl)-1-oxo-5,8,11,14,17,20,23,26,29-nonaoxa-2-azahentriacontan-31-yl)-1-methyl-5-oxo-2-(pyridin-3-yl)pyrrolidine-3-carboxamide], the EC50 was 0.794 nM.
